# Patent US20130071496A1, “CONTROLLED RELEASE COMPOSITION CONTAINING A STRONTIUM SALT” (Osteologix A/S, priority 2003, published 2013)
# Read-outs that look alike come from different tables or passages of the source.
# Legend:
# [1] = remark: listed apart in the source
# Description: The solubility of the organic carboxylic acid strontium salts, were measured in water. The solubility of these salts was also measured as a function of temperature. This was performed by incubating the saturated solutions of the salts in temperature controlled incubators.
# The buffered solutions were immersed into a bath of water temperature controlled at either room temperature (22-24° C.), at 30° C. or at 40° C. […] In order to eliminate any reminiscent strontium chloride influence on the determination of solubility, all the precipitate was collected at the bottom of the test tubes and the solutions above the precipitate were carefully removed and substituted by fresh solutions. […] From these solutions, the dissolved proportions of the strontium salt were collected in volumes of 1 mL at the specified temperature. The solutions were diluted to 50 mL before analysis by Flame Atomic Absorption Spectrometry (F-AAS).
# Two methods were used for quantification of strontium in solutions: Flame Atomic Absorption Spectrometry (F-AAS), and the more sensitive inductively-coupled-plasmamass spectrometry (ICP-MS).
# The solubilities were investigated as described above, and strontium content in the saturated solutions determined as described here below.
# Some of the very soluble strontium salts were further diluted before analysis by F-AAS. The measurements were performed by using a Perkin-Elmer 2100 equipped with a hydrogen lamp for correction of the background signal. Strontium was measured at a slit with of 0.2 nm, the wavelength was 460.8 nm operated at an energy of 58 and a current of 8 mA.
# This analysis was performed using a Perkin Elmer Elan 5000 system equipped with a cross-flow nebulizer. The power was set at 1000 W and the Argon-gas flow was 12 L/min and 0.8 L/min of the torch and plasma gas, respectively.
# [2] = values quoted in scientific literature or reference material; cited from earlier work
SMILES,"time to maximum serum concentration (serum strontium, single oral gavage, rats)","Solubility, Measured ([1]; commercially available salts, in water at room temperature (22-24°)) [mg/mL]","Solubility, Expected Value 18° C. [2] [mg/mL]","time to maximum serum concentration (rat, in vivo, po)","SOLUBILITY AT 40° C., In water [1] [mg/L]","SOLUBILITY AT ROOM TEMPERATURE (22-24° C.), In water [1] [Mg/L]","SOLUBILITY AT 40° C., pH 7.5 ([1]; pH 7.5) [mg/L]","SOLUBILITY AT ROOM TEMPERATURE (22-24° C.), pH 7.5 ([1]; pH 7.5) [Mg/L]",solubility in pH 7.5 buffered solution compared with pure water ([1]; pH 7.5),solubility compared to the other organic strontium salts [1]
"[Cl-].[Cl-].[Sr+2] [SrCl2, strontium chloride]",approximately 2 hours,240,538,,,,,,,
"N#Cc1c(N(CC(=O)[O-])CC(=O)[O-])sc(C(=O)[O-])c1CC(=O)[O-].[Sr+2].[Sr+2] [Ranelate, distrontium salt of 2-[N,N-di(carboxymethyl)amino]-3-cyano-4-carboxymethylthiophene-5-carboxylic acid, reference compound]",,,,approximately 2 hours,1450,760,1970,890,,
"CC(=O)C(=O)O [Pyruvate, strontium pyruvate]",,,,,,2204,,1946,,
"O=C([O-])/C=C\C(=O)[O-].[Sr+2] [Maleate, strontium maleate]",,,,,2527,3002,1457,1680,decreased solubility in the buffered solution,
"O=C([O-])/C=C/C(=O)[O-].[Sr+2] [Fumerate, strontium fumarate]",,,,,444,571,977,1215,,poor solubility
